Experimental data published in patent publication US20090209460A1, “COMPOSITIONS AND METHODS FOR TREATING OBESITY AND RELATED METABOLIC DISORDERS” (Amylin Pharmaceuticals, Inc., priority 2005, published 2009).
Read-outs that look alike come from different tables or passages of the source. Residues, ends and D or L forms follow the SMILES beside them.

How the values were obtained:
NIH/Swiss mice = experiment: acute food intake assay, lean overnight-fasted NIH/Swiss mice, intraperitoneal injection; format: in vivo, mouse; settings: for reduction of food intake: administered systemically (i.p. to mice), dose and time not stated; for FI (60′, 200): % change relative to control, 60 min; for Food Intake Inhibition: mouse assay, dose of 200 mg/kg, measured at 60 minutes
Procedure, shortened: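 Overnight-fasted lean female NIH/Swiss mice (8-24 weeks, group housed) received vehicle or peptide intraperitoneally at time 0, then pre-weighed standard chow. Food consumed was weighed at 30, 60 and 120 min and expressed as % change versus control.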

[1] = cumulative weight gain in rats with diet induced obesity (rat DIO), subcutaneous pump for seven days; format: in vivo; settings: subcutaneously continuously by pump for seven days
Protocol: Both compounds were administered subcutaneously continuously by pump for seven days at the rate and dosage indicated.

[2] = body weight and food intake in mice with diet induced obesity (mouse DIO), osmotic pump; format: in vivo
Protocol: The effect of FN38 and related compounds on body weight and food intake in obese subjects was investigated. Mice having diet induced obesity (DIO) were used. All in vivo tests were performed with peripheral injections of peptide. […] 4-week-old male C57BL/6 mice were group housed with water and a standard pelleted mouse chow diet available ad libitum, except as noted, and were maintained on a on a high fat diet (58% kcal from fat) for 4 weeks prior to the experiment. At the end of fattening period, osmotic pumps were implanted interscapularly under anesthesia. Mice received pumps continuously delivering vehicle (50% DMSO in water or saline) or polypeptide at the dose indicated. Food intake and body weight measurements were obtained weekly.

[3] = test system: mice with diet induced obesity (mouse DIO); experiment: cumulative food intake in mouse DIO after IP injection (FIGS. 6 and 7); format: in vivo; settings: injected IP at t=0; measured at 30, 60, 120 and 180 min
Protocol: The activities of the following compounds are shown: A, [MimicB36] FN38; B, [His37] FN38; C,
[His35] FN38; D, [Phe33] FN38; E, [Val33] FN38; F, Des-(Ser6,Lys7,Thr8,Gln9) FN38; G, Des-Val16,Val17-FN38; H, [Phe31] FN38; I, Des-(Val16,Val17,Phe24,Ala25,Ser26,Gln27) FN38; J, Des-(Phe1,Leu2,Phe3,His4)FN38; and K, Des-(Phe24,Ala25,Ser26,Gln27)-FN38. […] Points represent mean±sd of n=4 cages (3 mice/cage). Peptide was injected IP at t=0. Food was introduced immediately after injection and amount consumed measured at t=30, 60, 120, and 180 min. In the figure, * p<0.05 vs. vehicle control; ANOVA, Dunnett's test.

[4] = brush border membrane (BBM) stability assay; format: in vitro ADME, human; settings: brush border membrane extract (e.g. kidney)
Procedure, shortened: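 Peptides digested up to 5 h at 37 °C with human brush border membrane extract (e.g. kidney). Timepoints quenched with 50% ACN, 1% FA, centrifuged, intact peptide quantified by selected-ion mass spectrometry. Expressed as percent stable.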

rats = settings: 10 μg ICV dose; cited from earlier work
[5] = degradation in vitro in plasma, serial MS analyses; format: in vitro ADME
Source text: Doses at which we observed herein an absence of anorectic effect (in mice) were 1-2 orders of magnitude higher than the lower U8 dose for maximal hemodynamic effects in dogs (Sumi et al. 1987).

[6] = percent compound remaining after a 5 hour incubation, human brush border membrane assay, read-out: hBBM

SMILES | reduction of food intake (NIH/Swiss mice) | FI (60′, 200) (NIH/Swiss mice; food intake) [%] | cumulative food intake in mouse DIO (FIGS. 6A, 6B, 7A, 7B) [3] | remaining at 5 h [4, 6] [%] | Food Intake Inhibition (NIH/Swiss mice) [%] | further results
CC(C)C[C@H](NC(=O)[C@H](Cc1ccccc1)NC(=O)[C@H](Cc1ccccc1)NC(=O)CNC(=O)CNC(=O)[C@H](CO)NC(=O)[C@@H]1CCCN1C(=O)[C@H](C)NC(=O)[C@@H](NC(=O)[C@@H]1CCCN1C(=O)CNC(=O)[C@H](CCC(N)=O)NC(=O)[C@H](Cc1ccc(O)cc1)NC(=O)[C@H](CCC(=O)O)NC(=O)[C@H](CC(N)=O)NC(=O)[C@@H](NC(=O)[C@H](CCCCN)NC(=O)[C@@H](N)Cc1ccc(O)cc1)C(C)C)C(C)C)C(=O)N[C@@H](Cc1ccccc1)C(=O)N[C@@H](CCCNC(=N)N)C(=O)N1CCC[C@H]1C(=O)N[C@@H](CCCNC(=N)N)C(=O)N[C@@H](CC(N)=O)C(N)=O [Compound 163293, reference compound] (H-YKVNEYQGPVAPSGGFFLFRPRN-NH2; N-terminus assumed) | up to 66% | −37.5 | – | – | – | change in intake (effectiveness) (NIH/Swiss mice; food intake over 30 min, mice): −60%; ED50 at t = 60 (NIH/Swiss mice; food intake, t = 60): 0.017 mg/kg; ED50 for effect on food intake (NIH/Swiss mice; over 30 min, i.p., mice): 6.2 nmol/kg; cumulative weight gained in rat DIO (FIG. 5) [1]: reduction of cumulative weight gained; body weight gain and food intake in the DIO assay ([2]; 75 nmol/kg/day): decreased body weight gain and food intake; d 14 BWt loss ([2]; mouse DIO, day 14): 3.7%
CC(C)C[C@H](NC(=O)[C@H](CCCCN)NC(=O)[C@H](CCC(N)=O)NC(=O)[C@@H](NC(=O)[C@H](CCCCN)NC(=O)[C@H](CO)NC(=O)[C@H](Cc1ccc(O)cc1)NC(=O)[C@H](Cc1c[nH]cn1)NC(=O)[C@H](Cc1ccccc1)NC(=O)[C@H](CC(C)C)NC(=O)[C@@H](N)Cc1ccccc1)[C@@H](C)O)C(=O)NCC(=O)N[C@@H](CCCCN)C(=O)N[C@@H](CO)C(=O)N[C@@H](CC(N)=O)C(=O)N[C@@H](CO)C(=O)N[C@@H](CCCNC(=N)N)C(=O)NCC(=O)N[C@@H](Cc1ccc(O)cc1)C(=O)N[C@@H](Cc1ccccc1)C(=O)N[C@@H](CC(C)C)C(=O)N[C@@H](Cc1ccccc1)C(=O)N[C@@H](CCCNC(=N)N)C(=O)N1CCC[C@H]1C(=O)N[C@@H](CCCNC(=N)N)C(=O)N[C@@H](CC(N)=O)C(N)=O [Des-(Val16-Gln27)FN38] (H-FLFHYSKTQKLGKSNSRGYFLFRPRN-NH2; N-terminus assumed) | – | – | reduction of cumulative food intake | 80 | −42 | –
CC(C)C[C@H](NC(=O)[C@H](CCCCN)NC(=O)[C@H](CCC(N)=O)NC(=O)[C@@H](NC(=O)[C@H](CCCCN)NC(=O)[C@H](CO)NC(=O)[C@H](Cc1ccc(O)cc1)NC(=O)[C@H](Cc1c[nH]cn1)NC(=O)[C@H](Cc1ccccc1)NC(=O)[C@H](CC(C)C)NC(=O)[C@@H](N)Cc1ccccc1)[C@@H](C)O)C(=O)NCC(=O)N[C@@H](CCCCN)C(=O)N[C@@H](CO)C(=O)N[C@@H](CC(N)=O)C(=O)N[C@H](C(=O)N[C@H](C(=O)N[C@@H](CCC(=O)O)C(=O)N[C@@H](CCC(=O)O)C(=O)N[C@@H](CC(C)C)C(=O)N[C@@H](CCC(N)=O)C(=O)N[C@@H](CO)C(=O)N1CCC[C@H]1C(=O)N[C@@H](Cc1ccccc1)C(=O)N[C@@H](C)C(=O)N[C@@H](CO)C(=O)N[C@@H](CCC(N)=O)C(=O)N[C@@H](CO)C(=O)N[C@@H](CCCNC(=N)N)C(=O)NCC(=O)N[C@@H](Cc1ccc(O)cc1)C(=O)N[C@@H](Cc1ccccc1)C(=O)N[C@@H](Cc1ccccc1)C(=O)N[C@@H](Cc1ccccc1)C(=O)N[C@@H](CCCNC(=N)N)C(=O)N1CCC[C@H]1C(=O)N[C@@H](CCCNC(=N)N)C(=O)N[C@@H](CC(N)=O)C(N)=O)C(C)C)C(C)C [[Phe33]FN38] (H-FLFHYSKTQKLGKSNVVEELQSPFASQSRGYFFFRPRN-NH2; N-terminus assumed) | – | – | either not active or weakly active | 67 | −32 | –
CC(C)C[C@H](NC(=O)[C@H](Cc1ccccc1)NC(=O)[C@H](Cc1ccc(O)cc1)NC(=O)CNC(=O)[C@H](CCCNC(=N)N)NC(=O)[C@H](CO)NC(=O)[C@H](CCC(N)=O)NC(=O)[C@H](CO)NC(=O)[C@H](C)NC(=O)[C@H](Cc1ccccc1)NC(=O)[C@@H]1CCCN1C(=O)[C@H](CO)NC(=O)[C@H](CCC(N)=O)NC(=O)[C@H](Cc1ccccc1)NC(=O)[C@H](CCC(=O)O)NC(=O)[C@H](CCC(=O)O)NC(=O)[C@H](CC(=O)O)NC(=O)[C@@H](NC(=O)[C@H](CCCNC(=N)N)NC(=O)[C@@H](N)Cc1ccccc1)C(C)C)C(=O)N[C@@H](Cc1ccccc1)C(=O)N[C@@H](CCCNC(=N)N)C(=O)N1CCC[C@H]1C(=O)N[C@@H](CCCNC(=N)N)C(=O)N[C@@H](CC(N)=O)C(N)=O [Compound 165054, reference compound] (H-FRVDEEFQSPFASQSRGYFLFRPRN-NH2; N-terminus assumed) | at least 91% | −65 | – | – | – | remaining at 5 h ([4]; percent of stable, human brush border membrane extracts, five hours, 37° C., read-out: BBM): 13%; potency administered peripherally versus centrally (i.c.v.), on a presumed concentration basis (NIH/Swiss mice; i.p. ED50 in mice compared with literature ICV dose in rats): ~300 fold; reduction in food intake (rats): ~30%
CC(C)C[C@H](NC(=O)[C@H](CCCCN)NC(=O)[C@H](CCC(N)=O)NC(=O)[C@@H](NC(=O)[C@H](CCCCN)NC(=O)[C@H](CO)NC(=O)[C@H](Cc1ccc(O)cc1)NC(=O)[C@H](Cc1c[nH]cn1)NC(=O)[C@H](Cc1ccccc1)NC(=O)[C@H](CC(C)C)NC(=O)[C@@H](N)Cc1ccccc1)[C@@H](C)O)C(=O)NCC(=O)N[C@@H](CCCCN)C(=O)N[C@@H](CO)C(=O)N[C@@H](CC(N)=O)C(=O)NCC(=O)N[C@@H](Cc1ccc(O)cc1)C(=O)N[C@@H](Cc1ccccc1)C(=O)N[C@@H](CC(C)C)C(=O)N[C@@H](Cc1ccccc1)C(=O)N[C@@H](CCCNC(=N)N)C(=O)N1CCC[C@H]1C(=O)N[C@@H](CCCNC(=N)N)C(=O)N[C@@H](CC(N)=O)C(N)=O [Des-(Val16-Arg29)FN38] (H-FLFHYSKTQKLGKSNGYFLFRPRN-NH2; N-terminus assumed) | – | – | reduction of cumulative food intake | 91 | −42 | –
CC(C)C[C@H](NC(=O)[C@H](Cc1ccccc1)NC(=O)[C@@H](N)Cc1ccc(O)cc1)C(=O)N[C@@H](Cc1ccccc1)C(=O)N[C@@H](CCCNC(=N)N)C(=O)N1CCC[C@H]1C(=O)N[C@@H](CCCNC(=N)N)C(=O)N[C@@H](CC(N)=O)C(N)=O [Compound 163291, reference compound] | – | −75 | – | – | – | activity in food intake assays (NIH/Swiss mice; doses between 100-1000 μg/kg (up to 900 nmol/kg)): inactive; difference in potency between U-8 and rNMU-23 (NIH/Swiss mice; food intake, mice): at least 1000 fold; degradation in vitro in plasma [5]: rapid degradation
